ChEMBL document CHEMBL1201862, “PubChem BioAssay data set” (2004)
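All cell lines were grown in 96-well plates and treated with compound for 48 hours. The concentration for 50% growth inhibition is given as GI50.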 Activity calls are given as the source filed them. No stated cut-off is given here; in the data, active = GI50 up to about 1.1 µM and inactive = higher.

What was measured:
Assay in all cases: NCI anticancer screen, dose series, 48 h
[1] = test system: HT-29
[2] = test system: CAKI-1
[3] = test system: U-251
[4] = test system: Hs-578T
[5] = test system: NCI-H23
[6] = test system: TK-10
[7] = test system: ACHN
[8] = test system: OVCAR-5
[9] = test system: MDA-MB-231
[10] = test system: CCRF-CEM
[11] = test system: MDA-MB-435
[12] = test system: A498
[13] = test system: MOLT-4
[14] = test system: MDA-N
[15] = test system: SK-MEL-5
[16] = test system: SF-295
[17] = test system: M14
[18] = test system: HCC 2998
[19] = test system: IGROV-1
[20] = test system: MCF7

SMILES | GI50 [1] | GI50 [2] | GI50 [3] | GI50 [4] | GI50 [5] | GI50 [6] | GI50 [7] | GI50 [8] | GI50 [9] | GI50 [10] | GI50 [11] | GI50 [12] | GI50 [13] | GI50 [14] | GI50 [15] | GI50 [16] | GI50 [17] | GI50 [18] | GI50 [19] | GI50 [20]
O=C(O)c1c(-c2c3ccc(=O)cc-3oc3cc(O)ccc23)cc2ccccc2c1-c1ccccc1 | > 100 µM (inactive) | > 100 µM (inactive) | > 100 µM (inactive) | > 100 µM (inactive) | > 100 µM (inactive) | > 36.6 µM (inactive) | > 100 µM (inactive) | > 100 µM (inactive) | > 100 µM (inactive) | > 20.6 µM (inactive) | > 100 µM (inactive) | > 100 µM (inactive) | 4.85 µM (inactive) | > 100 µM (inactive) | > 100 µM (inactive) | > 100 µM (inactive) | > 100 µM (inactive) | > 34 µM (inactive) | > 100 µM (inactive) | > 100 µM (inactive)
CCNCCCCNCCCCNCCCCNCCCCNCC | 18.6 µM (inactive) | 10.4 µM (inactive) | > 100 µM (inactive) | 2.84 µM (inactive) | 9.08 µM (inactive) | 29.7 µM (inactive) | > 89.9 µM (inactive) | 52.5 µM (inactive) | > 100 µM (inactive) | 63.5 µM (inactive) | 8.97 µM (inactive) | > 94.2 µM (inactive) | > 79.6 µM (inactive) | 12.3 µM (inactive) | 53.5 µM (inactive) | 42 µM (inactive) | > 100 µM (inactive) | > 100 µM (inactive) | 41.9 µM (inactive) | > 100 µM (inactive)
COC1(OC)C2(Cl)C(Cl)=C(Cl)C1(Cl)C1c3ccc(C(C)=O)c4cccc(c34)C12 (stereo not given) | 5.24 µM (inactive) | > 37.4 µM (inactive) | 30.3 µM (inactive) | > 100 µM (inactive) | 7.16 µM (inactive) | 71 µM (inactive) | 19 µM (inactive) | 28.6 µM (inactive) | 9.73 µM (inactive) | 13.8 µM (inactive) | 7.67 µM (inactive) | 14.3 µM (inactive) | 5.47 µM (inactive) | 14.8 µM (inactive) | 10.4 µM (inactive) | 26 µM (inactive) | 11.9 µM (inactive) | 10.2 µM (inactive) | > 94.6 µM (inactive) | 5.5 µM (inactive)
S=c1[nH]nc(Cc2ccccc2)c(=S)[nH]1 | > 51.8 µM (inactive) | > 54.8 µM (inactive) | > 55.1 µM (inactive) | 33 µM (inactive) | > 64.4 µM (inactive) | > 56 µM (inactive) | 4.8 µM (inactive) | > 50.2 µM (inactive) | 26.1 µM (inactive) | > 100 µM (inactive) | 63 µM (inactive) | > 42.9 µM (inactive) | > 59.7 µM (inactive) | 98.6 µM (inactive) | 46.7 µM (inactive) | > 59.3 µM (inactive) | > 78.9 µM (inactive) | > 45.9 µM (inactive) | > 53.1 µM (inactive) | 55.8 µM (inactive)
C=CCC1(OC(C)=O)C2OC(=O)C1(O)OCC2O (stereo not given) | > 100 µM (inactive) | > 100 µM (inactive) | > 100 µM (inactive) | > 100 µM (inactive) | > 100 µM (inactive) | > 70.8 µM (inactive) | > 100 µM (inactive) | > 100 µM (inactive) | > 100 µM (inactive) | > 100 µM (inactive) | > 100 µM (inactive) | > 100 µM (inactive) | > 100 µM (inactive) | > 100 µM (inactive) | > 100 µM (inactive) | > 100 µM (inactive) | > 100 µM (inactive) | > 100 µM (inactive) | > 100 µM (inactive) | > 100 µM (inactive)
O=c1cccc(C2CC(CO)C3CCCCN3C2)[nH]1 (stereo not given) | > 100 µM (inactive) | > 100 µM (inactive) | > 100 µM (inactive) | > 100 µM (inactive) | > 100 µM (inactive) | > 100 µM (inactive) | > 100 µM (inactive) | > 100 µM (inactive) | > 100 µM (inactive) | > 100 µM (inactive) | > 100 µM (inactive) | > 100 µM (inactive) | > 100 µM (inactive) | > 100 µM (inactive) | > 100 µM (inactive) | > 100 µM (inactive) | > 100 µM (inactive) | > 100 µM (inactive) | > 100 µM (inactive) | > 100 µM (inactive)
CC(C)=CCC[C@@H](C)C1=C(Nc2ccccc2)C(=O)C(C)=C(O)C1=O | 4.16 µM (inactive) | 2.82 µM (inactive) | 2.74 µM (inactive) | 2.34 µM (inactive) | 2.82 µM (inactive) | 4.29 µM (inactive) | 2.56 µM (inactive) | 8.95 µM (inactive) | 2.89 µM (inactive) | 0.239 µM (active) | 4.72 µM (inactive) | 3.34 µM (inactive) | 0.719 µM (active) | 4.54 µM (inactive) | 2 µM (inactive) | 1.85 µM (inactive) | 3.13 µM (inactive) | 5.92 µM (inactive) | 3.01 µM (inactive) | 4.29 µM (inactive)
CCOC(=O)/C=C(\C(=O)OCC)n1ccc(=O)[nH]c1=O | 15.2 µM (inactive) | 1.91 µM (inactive) | 17.4 µM (inactive) | 29.4 µM (inactive) | 16.7 µM (inactive) | 13.3 µM (inactive) | 9.35 µM (inactive) | 19.7 µM (inactive) | 14.3 µM (inactive) | 2.16 µM (inactive) | 17.4 µM (inactive) | 19.1 µM (inactive) | 3.44 µM (inactive) | 22.6 µM (inactive) | 24.7 µM (inactive) | > 60.8 µM (inactive) | 16.5 µM (inactive) | 22.4 µM (inactive) | 15.4 µM (inactive) | 9.2 µM (inactive)
COc1ccc(N2C(=O)C3c4[nH]c5ccc([N+](=O)[O-])cc5c4C4CCC(C(C)(C)C)CC4C3C2=O)cc1 (stereo not given) | 3.96 µM (inactive) | 18.3 µM (inactive) | 19.3 µM (inactive) | 25.4 µM (inactive) | 6.53 µM (inactive) | 25.2 µM (inactive) | 9.75 µM (inactive) | 18.5 µM (inactive) | 5.18 µM (inactive) | 4.51 µM (inactive) | 18.7 µM (inactive) | 2.26 µM (inactive) | 14.3 µM (inactive) | 20.3 µM (inactive) | 12.4 µM (inactive) | 13.7 µM (inactive) | 14.8 µM (inactive) | 10.9 µM (inactive) | 7.66 µM (inactive) | 4.45 µM (inactive)
COc1cc(/C=C2\Sc3scc(-c4cccc([N+](=O)[O-])c4)[n+]3C2=O)cc(OC)c1OC | 13.1 µM (inactive) | 5.98 µM (inactive) | 11.6 µM (inactive) | 10.8 µM (inactive) | 15.1 µM (inactive) | 10.7 µM (inactive) | 14.9 µM (inactive) | 20.8 µM (inactive) | 7.29 µM (inactive) | 44.9 µM (inactive) | 12.6 µM (inactive) | 47 µM (inactive) | 3.21 µM (inactive) | 11.9 µM (inactive) | 6.1 µM (inactive) | 16.3 µM (inactive) | 11.7 µM (inactive) | 14.5 µM (inactive) | 14 µM (inactive) | 4.15 µM (inactive)
Oc1cccc(-c2cn3cc(Cl)ccc3n2)c1 | 43.4 µM (inactive) | 70 µM (inactive) | 69.2 µM (inactive) | 97.1 µM (inactive) | 51.8 µM (inactive) | 35.4 µM (inactive) | 43.9 µM (inactive) | 72.6 µM (inactive) | > 100 µM (inactive) | 7.03 µM (inactive) | 34.9 µM (inactive) | 45.3 µM (inactive) | 32.7 µM (inactive) | 39.8 µM (inactive) | 16.6 µM (inactive) | 39.4 µM (inactive) | 49.7 µM (inactive) | 38.4 µM (inactive) | 16.7 µM (inactive) | 17.3 µM (inactive)
C=CCN1C(=O)CC2[C@@H]3CCc4cc(O)ccc4C3CC[C@]2(C)C1=O (stereo not given in full) | > 10 µM (inactive) | > 10 µM (inactive) | > 10 µM (inactive) | > 10 µM (inactive) | > 10 µM (inactive) | > 10 µM (inactive) | > 10 µM (inactive) | > 10 µM (inactive) | > 10 µM (inactive) | > 10 µM (inactive) | > 10 µM (inactive) | > 10 µM (inactive) | > 10 µM (inactive) | > 10 µM (inactive) | > 10 µM (inactive) | > 10 µM (inactive) | > 10 µM (inactive) | > 10 µM (inactive) | > 10 µM (inactive) | > 10 µM (inactive)
CN(CCc1ccc(Br)cc1)CCN1CCCCC1 | 12.7 µM (inactive) | 43.2 µM (inactive) | 39.5 µM (inactive) | 19.7 µM (inactive) | 31.9 µM (inactive) | 71.3 µM (inactive) | 62.5 µM (inactive) | 41 µM (inactive) | 17.3 µM (inactive) | 16.4 µM (inactive) | 26.4 µM (inactive) | 21 µM (inactive) | 31 µM (inactive) | 22.6 µM (inactive) | 14.9 µM (inactive) | 25.1 µM (inactive) | 22.8 µM (inactive) | 33.7 µM (inactive) | 36.4 µM (inactive) | 21.7 µM (inactive)
C=C(C)[C@@]12C[C@H](OC(=O)[C@H](O)[C@@H](NC(=O)c3ccccc3)c3ccccc3)C(C)=C1[C@@H](OC(C)=O)C(=O)[C@@]1(C)C([C@@H]2OC(=O)c2cc(F)cc(F)c2)C2(OC(C)=O)CO[C@@H]2C[C@@H]1O (stereo not given in full) | 0.0278 µM (active) | 0.525 µM (active) | 0.0822 µM (active) | 0.0186 µM (active) | 0.152 µM (active) | 0.3 µM (active) | 0.555 µM (active) | 0.165 µM (active) | 0.21 µM (active) | 0.0367 µM (active) | 0.0117 µM (active) | 0.164 µM (active) | 0.0428 µM (active) | 0.0133 µM (active) | 0.117 µM (active) | > 10 µM (inactive) | 0.141 µM (active) | 0.0668 µM (active) | 0.361 µM (active) | 0.029 µM (active)
